Common to all, as to assay type: cell-based, Mycobacterium smegmatis
Assay [1] relates to M. smegmatis ΔrrnB (bacterial ribosomes). The assay is described as follows: MIC, recombinant M. smegmatis with bacterial (wild-type) ribosomes. As to conditions: 72 h at 37° C. From the text: (§1) The strain used for introduction/selection of mutational alterations was a genetically modified derivative of Mycobacterium smegmatis carrying a single functional chromosomal rRNA operon (Sander et al. Mol. Microbiol. 1996, 22: 841-848). This strain, termed M. smegmatis rrn^−, allowed for the selection of mutational rRNA gene alterations using a plasmid carrying the rRNA gene with the respective mutational alteration.)
(§2) The rRNA gene carried on the plasmid encodes either the complete rRNA operon (Prammananan et al. Antimicrob. Agents Chemother. 1999, 43: 447-453) or a non-functional rRNA gene fragment of approximately 1.0 kb (Pfister et al. Antimicrob. Agents Chemother. 2003, 47: 1496-1502). PCR-mutagenesis in vitro was used to generate the mutagenized rRNA gene fragment. In the case of a partial rRNA gene fragment the mutagenized rRNA gene fragment was cloned into vectors pMV261 or pMV361 (Sander et al. Mol. Microbiol. 2002, 46: 1295-1304; Pfister et al. Antimicrob. Agents Chemother. 2003, 47: 1496-1502) to result in vectors carrying a partial rRNA gene fragment of approximately 1.0 kb with the mutational alteration introduced. In the case of plasmids carrying the complete rRNA operon the mutagenized rRNA gene fragment obtained by PCR was cloned into vectors pMV361 rRNA or pMV261 rRNA using appropriate restriction sites (Prammananan et al. Antimicrob. Agents Chemother. 1999, 43: 447-453). Vectors pMV361 rRNA and pMV261 rRNA carried a complete copy of the rRNA operon from M. smegmatis (Sander et al. Mol. Microbiol. 1997, 26: 469-480). Introduction of mutations into the plasmid encoded rRNA was confirmed by sequencing.
(§3) The single rRNA allelic derivative of M. smegmatis, i.e. M. smegmatis rrn, was used for transformation of the plasmids. The strain was made electro-competent and transformed according to standard techniques and as described previously (Sander et al. Mol. Microbiol. 1997, 26: 469-484). Following primary selection, the plasmid-encoded mutational rRNA gene alteration was transferred into the single chromosomal rRNA operon by means of RecA-mediated homologous recombination (Prammananan at al. Antimicrob. Agents Chemother. 1999, 43: 447-453). Introduction of the mutational rRNA gene alteration into the single functional chromosomal rRNA operon by gene conversion was confirmed by sequence determination.
(§4) Ribosomal drug susceptibility was studied by determining the minimal inhibitory concentrations, as described in detail in Pfister et al. 2003 and 2005 (see above).
(§5) The recombinants carrying the respective mutational alterations in the functional rRNA operon were colony-purified and subjected to determinations of minimal inhibitory concentrations (MIC) to determine ribosomal drug susceptibility. Cultures from single colonies were grown in LB medium supplemented with 0.05% Tween 80 and used for MIC tests in a microtiter plate format. Starting cultures contained 200 μl of bacterial cells at an optical density of 0.025 at 600 nm, and the respective drug was added in twofold series of dilution.
(§6) Key nucleotides which distinguish the prokaryotic from the eukaryotic decoding site are 16S rRNA positions 1408 (bacterial ribosome: A, eukaryotic cytosolic ribosomes: G) and 1491 (bacterial ribosomes: G, eukaryotic cytosolic ribosomes: A, eukaryotic mitochondrial ribosome: C).

The test system of assay [2] is M. smegmatis ΔrrnB 1408G (16S rRNA position 1408 G, eukaryotic cytosolic ribosomes). The assay is described as follows: MIC, recombinant M. smegmatis with mutant ribosomes 1408G. The following applies: M. smegmatis ΔrrnB 1408G mutant ribosomes; 72 h at 37° C.
Description: as §1, §2, §3, §4, §5, §6

Assay [3] relates to M. smegmatis ΔrrnB 1491A (16S rRNA position 1491 A, eukaryotic cytosolic ribosomes). As to the kind of experiment: MIC, recombinant M. smegmatis with mutant ribosomes 1491A. The following applies: M. smegmatis ΔrrnB 1491A mutant ribosomes; 72 h at 37° C.
Description: as §1, §2, §3, §4, §5, §6

Assay [4] relates to M. smegmatis ΔrrnB 1491C (16S rRNA position 1491 C, eukaryotic mitochondrial ribosome). The assay is described as follows: MIC, recombinant M. smegmatis with mutant ribosomes 1491C. As to conditions: M. smegmatis ΔrrnB 1491C mutant ribosomes; 72 h at 37° C.
Description: as §1, §2, §3, §4, §5, §6

Experimental findings from patent publication US8546343B2, “Aminoglycoside antibiotics targeting bacterial 16S ribosomal RNA” (Eidgenoessische Technische Hochschule Zurich, priority 2007, dated 2013) are described below.

Some results are limits rather than exact numbers.

For the compound `NC[C@@H]1O[C@H](O[C@H]2[C@@H](O)[C@H](O[C@@H]3[C@@H](O)[C@H](N)C[C@H](N)[C@H]3O[C@H]3O[C@@H]4CO[C@@H](c5cccc(Cl)c5)O[C@H]4[C@H](O)[C@H]3N)O[C@@H]2CO)[C@H](N)[C@@H](O)[C@@H]1O` [Compound 5.15, 4′,6′-O-m-chlorobenzylideneparomomycin], the “minimal inhibitory concentrations ΔrrnB” value in assay [1] was in the range of 2 to 4 µg/mL. Moreover, the “minimal inhibitory concentrations ΔrrnB 1408G” value in assay [2] was in the range of 256 to 512 µg/mL. The “minimal inhibitory concentrations ΔrrnB 1491A” value in assay [3] turned out to be 512 µg/mL. Besides, the “minimal inhibitory concentrations ΔrrnB 1491C” value in assay [4] turned out to be 512 µg/mL.
As for `NC[C@@H]1O[C@H](O[C@H]2[C@@H](O)[C@H](O[C@@H]3[C@@H](O)[C@H](N)C[C@H](N)[C@H]3O[C@H]3O[C@@H]4CO[C@@H](c5ccccc5[N+](=O)[O-])O[C@H]4[C@H](O)[C@H]3N)O[C@@H]2CO)[C@H](N)[C@@H](O)[C@@H]1O` [Compound 5.16, 4′,6′-O-o-Nitrobenzylideneparomomycin], in assay [1], the “minimal inhibitory concentrations ΔrrnB” value lay in the range of 4 to 16 µg/mL. Also, the “minimal inhibitory concentrations ΔrrnB 1408G” value in assay [2] was found to be 512 µg/mL. In assay [3], the “minimal inhibitory concentrations ΔrrnB 1491A” value turned out to be 512 µg/mL. Besides, the “minimal inhibitory concentrations ΔrrnB 1491C” value in assay [4] was greater than 512 µg/mL.
On to `CN(C)c1ccc([C@@H]2OC[C@H]3O[C@H](O[C@H]4[C@H](O[C@@H]5O[C@H](CO)[C@@H](O[C@H]6O[C@@H](CN)[C@@H](O)[C@H](O)[C@H]6N)[C@H]5O)[C@@H](O)[C@H](N)C[C@@H]4N)[C@H](N)[C@@H](O)[C@@H]3O2)cc1` [Compound 5.18, 4′,6′-O-p-Dimethylaminobenzylideneparomomycin], for which the “minimal inhibitory concentrations ΔrrnB” value in assay [1] lay in the range of 2 to 4 µg/mL. For the same compound, the “minimal inhibitory concentrations ΔrrnB 1408G” value in assay [2] is 256 to 512 µg/mL. Moreover, the “minimal inhibitory concentrations ΔrrnB 1491A” value in assay [3] amounted to 256 µg/mL. Moreover, the “minimal inhibitory concentrations ΔrrnB 1491C” value in assay [4] is greater than 512 µg/mL.
Turning to `NC[C@@H]1O[C@H](O[C@H]2[C@@H](O)[C@H](O[C@@H]3[C@@H](O)[C@H](N)C[C@H](N)[C@H]3O[C@H]3O[C@@H]4CO[C@@H](c5cccc6ccccc56)O[C@H]4[C@H](O)[C@H]3N)O[C@@H]2CO)[C@H](N)[C@@H](O)[C@@H]1O` [Compound 5.19, 4′,6′-O-1-Naphthylideneparomomycin], in assay [1], the “minimal inhibitory concentrations ΔrrnB” value was 4 to 8 µg/mL. Also, in assay [2], the “minimal inhibitory concentrations ΔrrnB 1408G” value turned out to be 512 µg/mL. For the same compound, in assay [3], the “minimal inhibitory concentrations ΔrrnB 1491A” value was in the range of 256 to 512 µg/mL. For the same compound, the “minimal inhibitory concentrations ΔrrnB 1491C” value in assay [4] came to 256 µg/mL.
For `NC[C@@H]1O[C@H](O[C@H]2[C@@H](O)[C@H](O[C@@H]3[C@@H](O)[C@H](N)C[C@H](N)[C@H]3O[C@H]3O[C@@H]4COC(c5ccco5)O[C@H]4[C@H](O)[C@H]3N)O[C@@H]2CO)[C@H](N)[C@@H](O)[C@@H]1O` (stereo partly shown) [Compound 5.21, 4′,6′-O-2-Furanylideneparomomycin], the “minimal inhibitory concentrations ΔrrnB” value in assay [1] was 8 to 16 µg/mL. The “minimal inhibitory concentrations ΔrrnB 1408G” value in assay [2] is greater than 512 µg/mL. Besides, in assay [3], the “minimal inhibitory concentrations ΔrrnB 1491A” value was greater than 512 µg/mL. Moreover, the “minimal inhibitory concentrations ΔrrnB 1491C” value in assay [4] was greater than 512 µg/mL.
`NC[C@@H]1O[C@H](O[C@H]2[C@@H](O)[C@H](O[C@@H]3[C@@H](O)[C@H](N)C[C@H](N)[C@H]3O[C@H]3O[C@@H]4COC(c5cccs5)O[C@H]4[C@H](O)[C@H]3N)O[C@@H]2CO)[C@H](N)[C@@H](O)[C@@H]1O` (stereo partly shown) [Compound 5.22, 4′,6′-O-2-Thiophenylideneparomomycin]: the “minimal inhibitory concentrations ΔrrnB” value in assay [1] lay within 8 to 16 µg/mL. The “minimal inhibitory concentrations ΔrrnB 1408G” value in assay [2] was greater than 512 µg/mL. In assay [3], the “minimal inhibitory concentrations ΔrrnB 1491A” value was greater than 512 µg/mL. Besides, the “minimal inhibitory concentrations ΔrrnB 1491C” value in assay [4] was greater than 512 µg/mL.
For `CC1OC[C@H]2O[C@H](O[C@H]3[C@H](O[C@@H]4O[C@H](CO)[C@@H](O[C@H]5O[C@@H](CN)[C@@H](O)[C@H](O)[C@H]5N)[C@H]4O)[C@@H](O)[C@H](N)C[C@@H]3N)[C@H](N)[C@@H](O)[C@@H]2O1` (stereo partly shown) [Compound 5.23, 4′,6′-O-Ethylideneparomomycin], in assay [1], the “minimal inhibitory concentrations ΔrrnB” value stood at 32 µg/mL. The “minimal inhibitory concentrations ΔrrnB 1408G” value in assay [2] was greater than 512 µg/mL. In addition, in assay [3], the “minimal inhibitory concentrations ΔrrnB 1491A” value is greater than 512 µg/mL. The “minimal inhibitory concentrations ΔrrnB 1491C” value in assay [4] is greater than 512 µg/mL.
